Results as given in PubChem BioAssay (NCI).
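96-well plates; 48 h exposure; 5 concentrations. Endpoints by linear interpolation between flanking doses. Not reached: highest tested concentration assigned. The concentration for full growth arrest is given as TGI.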

Columns and labels:
Assay in all cases: NCI anticancer screen, dose series, 48 h
[1] = system: SR leukemia
[2] = system: HT29 colon
[3] = system: UO-31 renal
[4] = system: OVCAR-3 ovarian
[5] = system: OVCAR-4 ovarian
[6] = system: DU-145 prostate
[7] = system: RPMI-8226 leukemia
[8] = system: NCI-H23 lung
[9] = system: CAKI-1 renal
[10] = system: MALME-3M melanoma
[11] = system: HOP-62 NSCLC
[12] = system: UACC-257 melanoma
[13] = system: SK-OV-3 ovarian
[14] = system: RXF 393 renal
[15] = system: HS 578T breast
[16] = system: COLO 205 colon
[17] = system: SN12C renal
[18] = system: SK-MEL-28 melanoma
[19] = system: HCT-116 colon
[20] = system: IGROV1 ovarian

| Structure (SMILES) | TGI [1] [µM] | TGI [2] [µM] | TGI [3] [µM] | TGI [4] [µM] | TGI [5] [µM] | TGI [6] [µM] | TGI [7] [µM] | TGI [8] [µM] | TGI [9] [µM] | TGI [10] [µM] | TGI [11] [µM] | TGI [12] [µM] | TGI [13] [µM] | TGI [14] [µM] | TGI [15] [µM] | TGI [16] [µM] | TGI [17] [µM] | TGI [18] [µM] | TGI [19] [µM] | TGI [20] [µM] |
| --- | --- | --- | --- | --- | --- | --- | --- | --- | --- | --- | --- | --- | --- | --- | --- | --- | --- | --- | --- | --- |
| O=C1CCc2cc3c(cc21)CC1(Cc2ccccc2C1)C3 | 5.18 | 14.2 | > 100 | > 80.8 | > 100 | > 100 | 25.8 | > 86.5 | 47.2 | > 100 | > 84.6 | 65.2 | > 100 | > 76.8 | > 100 | 17.2 | > 100 | > 100 | > 46.3 | > 100 |
| O=C1C(=O)N(C2CCCCC2)C(=S)N1C1CCCCC1 | > 100 | > 100 | > 100 |  | > 100 | > 100 | > 100 | > 100 | > 100 | > 100 | > 100 | > 100 | > 100 | > 100 | > 100 | > 100 | > 100 | > 100 | > 100 | > 100 |
| Cc1ccc(-c2n[nH]c(=O)[nH]2)cc1 | > 100 | > 100 | > 100 | > 100 | > 100 | > 100 | > 100 | > 100 | > 100 | > 100 | > 100 | 98.7 |  | > 100 | > 100 | > 100 | > 100 | > 100 | > 100 | > 100 |
| CO[C@@H](c1ccccc1)[C@H](O)[C@](O)(c1ccccc1)P(=O)(OC)OC | > 100 | > 100 | > 100 | > 100 | > 100 | > 100 | > 100 | > 100 | > 100 | > 100 |  | > 100 | > 100 | > 100 | > 100 | > 100 | > 100 | > 100 | > 100 | > 100 |
| CC1CC[C@@]2(OC1)OC1C[C@H]3[C@@H]4CC[C@H]5CC(OC6OC(CO)C(OC7OC(CO)C(O)C(O)C7O)C(O)C6O)CCC5(C)[C@H]4CCC3(C)C1[C@@H]2C (stereo partly specified) | 27.5 | 15.8 | 22.5 | 14.6 | 17.1 | 18 | 45.3 | 16.2 | 16.9 | 15.7 | 16.1 | 18.3 | 18.7 | 19.8 | 17.1 | 14 | 15.3 | 16.6 | 15 | 9.77 |
| Cc1nnc2sc(-c3ccc(-c4ccccc4Cl)o3)nn12 | 53.6 | > 100 | > 100 | 84.7 | > 100 | > 100 | 60 | 74.2 | > 100 | > 100 | > 100 | > 100 | > 100 | > 100 | > 100 | > 100 | > 100 |  | 44.2 | > 100 |
